The data set in a line: Human HepG2 cell viability assay in 384 well format. To be noted: HepG2 cells, read-out: Inhibition. More on the design: dose 125 nL, time 70.5 hour; concentration not given beside the values. It is filed as toxicity, cell-based.
Turning to `CN1CCCC2(CCN(C(=O)c3ccncc3)C2)C1` (stereo not given), the cytotoxicity at 70.5 h amounted to 7.77%. With `CC(C)n1ccc(-c2cc(C(=O)N3CCCC3)c3ccccn23)n1` the figure was 39.5%; with `CN1CCN(Cc2cn3c(n2)CN(Cc2cccnc2)CC3)CC1`, 19.4%; with `CC(=O)NCC(=O)N1CCC2(CC1)CN(c1cccnc1)C(=O)CO2`, -13.6%. As to `CC(=O)N1C[C@H](NC(=O)c2cscn2)[C@@H]2OCCC[C@@H]21`, the cytotoxicity at 70.5 h is -16.1%. With `COc1nn(C)c2c1CCCN(C(=O)c1cc[nH]n1)C2` the figure was -13%. With `CCN1CCC2(COCc3cnc(-c4cccnc4)nc32)C1` (stereo not given), the cytotoxicity at 70.5 h is -13.9%. With `CS(=O)(=O)NC[C@]12COC[C@H]1CN(C(=O)C1CCCCC1)C2`, the cytotoxicity at 70.5 h was -8.19%. As for `CCN1CCCn2c(nc(CNC(=O)c3ccsc3)cc2=O)C1`, the figure is -15.8%. With `Cn1cccc1C(=O)N1CC[C@H]2C[C@@H](c3ccncn3)O[C@@H]2C1` the figure was -9.87%. As for `CC1=N[C@@]2(CC[C@@H]3CN(S(=O)(=O)N(C)C)C[C@@H]32)C(=O)N1CC(C)C`, the figure is -7.17%. Take `Cc1nc(COC[C@@H]2CC[C@H]3[C@H](CCN3S(C)(=O)=O)O2)cs1`: the cytotoxicity at 70.5 h is -11.7%. With `COCC(=O)N1CC[C@@H]2O[C@@H](COCc3csc(C)n3)CC[C@@H]21` the figure was 4.53%; with `CC1=N[C@@]2(CC[C@@H]3CN(S(=O)(=O)CC(C)C)C[C@@H]32)C(=O)N1CC(C)C`, -5.23%.

With `Cc1ccc(CN2CCCC23CCN(S(=O)(=O)c2ccccc2)C3)o1` (stereo not given), the cytotoxicity at 70.5 h was -7.71%. With `CS(=O)(=O)N[C@@H]1CCO[C@]2(CCN(C(=O)c3cnccn3)C2)C1` the figure was -5.97%; with `CS(=O)(=O)NCc1nnc2n1CCN(CC1CC1)C2`, -6.05%; with `CN1CCOCC2(CCCN(C(=O)c3cnccn3)C2)C1` (stereo not given), 0.574%. As for `c1cnc(N2CCC3(COCc4cnc(-c5cccnc5)nc43)C2)nc1` (stereo not given), the figure is 19.5%; as for `COCC(=O)NC1CC2(CCN(Cc3ccco3)CC2)c2ccccc21` (stereo not given), -12.8%; as for `NC(=O)N1CC[C@H](O)[C@@H]1Cc1cccnc1`, -12.6%. As for `O=C(NCCc1cccs1)[C@H]1CO[C@H]2CCNC[C@H]2C1`, the figure is -15%. Regarding `COCCN1CC[C@@H]2OC[C@H](C(=O)NCc3cccs3)C[C@@H]2C1`, the cytotoxicity at 70.5 h was 10.1%. As for `CCC1=N[C@@]2(CC[C@@H]3CN(CC4CC4)C[C@@H]32)C(=O)N1C`, the figure is -14.1%; as for `CS(=O)(=O)CC(=O)N1C[C@H]2CCC[C@@]2(COCc2ccccn2)C1`, -19.8%; as for `Cc1nnc(N2CC[C@H]3C[C@@H](C(=O)NC4CCCC4)O[C@H]3C2)s1`, 27%. As for `O=C(NCC1CC1)[C@H]1C[C@H]2OCC[C@H]2N(CCc2ccccc2)C1`, the figure is -1.31%. As for `CC(C)NC(=O)N1CCc2ncc(CN3CCOCC3)n2CC1`, the figure is -1.87%; as for `Cn1ccc(C(=O)N2CCC[C@]3(C[C@@H](OCc4ccccn4)CO3)C2)n1`, -12.2%. As to `CC(C)N1CCC2(CCN(C(=O)c3cccnc3)CC2)C1`, the cytotoxicity at 70.5 h is -16.3%. As for `O=C(NCc1ccccn1)[C@H]1COC[C@H]2CN(Cc3ccoc3)C[C@H]21`, the figure is -2.29%; as for `O=C([C@H]1C[C@H]2OCC[C@H]2N(Cc2cccnc2)C1)N1CCCO1`, 0.465%. For `FC1(F)CCN(Cc2ccccn2)CC12CCN(c1cccnc1)C2` (stereo not given), the cytotoxicity at 70.5 h stood at 21.6%. As for `c1cc(CNCC2OCCc3cn(CC4CCOCC4)nc32)ccn1` (stereo not given), the figure is 9.22%; as for `Cn1nc(COc2cccnc2)c2c1CCN(c1cnccn1)C2`, -14.9%.

The record behind these values is ChEMBL document CHEMBL3507680, “University of Dundee, Gates Library screen for HepG2 cell viability”.
